What was measured:
[1] = hydrophobin-coated glassy carbon electrode, phosphate buffer pH 7
Method: Glassy carbon electrode was coated with hydrophobin by placing the electrode in a solution of hydrophobin (100 μg/ml) and incubating for 15 minutes, after which the electrode was thoroughly rinsed with water.
The electrode, modified and functionalized with the enzyme, was placed in a three electrode system, including an Ag/AgCl reference electrode and a Pt counter electrode, using phosphate buffer pH 7 (25 mM).
The modified electrode was stored in a sealed container, not in liquid, at 4° C., and tested frequently for activity and response to glucose.

[2] = Glucose oxidase and peroxidase immobilized on hydrophobin-coated TEFLON sheets, o-dianisidine colour assay at 435 nm; format: biochemical; conditions: hydrophobin-coated TEFLON sheet (SC3, trSC3, SC4), partner enzyme in solution
Method: The coating was achieved by incubating the TEFLON™ at 25° C. in 2 ml of a 100 μg/ml hydrophobin solution (here SC3, trSC3 and SC4 were used in separate experiments) in a 3 ml glass vial for 15 minutes. The sheets were removed from the hydrophobin solution and were washed with large amounts of water to remove any unbound hydrophobin.
Both sheets were placed in a container containing o-dianisidine and, upon addition of glucose, the solution became colored.
The functionalized TEFLON™ is still active after storage for several weeks at 4° C.

[3] = Cholesterol oxidase immobilized on hydrophobin-coated glassy carbon electrode, current response to cholesterol; format: biochemical; conditions: phosphate buffer pH 7
Excerpt: To overcome the poor solubility of cholesterol in water, the cholesterol was solubilized in isopropanol with Triton in phosphate buffer (Ropers, M.-H. et al., 2001, Phys. Chem. Chem. Phys. 3:240-245).

[4] = Different enzymes immobilized via SC3 hydrophobin on TEFLON, spectrophotometry at 412 and 435 nm; format: biochemical; conditions: SC3-coated TEFLON
Method: The surface was first coated with SC3 hydrophobin by immersion in the protein aqueous solution (0.3 mg/mL) during approximately 30 minutes. The obtained modified surface was then immersed in an aqueous enzyme solution during approximately 30 minutes. After each step, the TEFLON™ surface was rinsed with an adequate buffer solution. Activity of the immobilized enzymes was followed by spectrophotometry at 412 and 435 nm after immersion of the functionalized surface in the corresponding substrate solution. The optical density of the solution increases after the immersion of the functionalized surface and stays constant after its removal. […] The functionalized TEFLON® was stored at 4° C. in an Eppendorf tube containing a buffer solution.
(Biocatalysts, Wales; final concentration 2.1 mg/mL), lipase from Candida cylindracea (Biocatalysts, Wales; final concentration 0.25 mg/mL), porcine liver esterase (SIGMA; 41 U/mg of solid, final concentration 2.4 mg/mL), bovine pancreas trypsin (SIGMA; 8,750 U/mg of solid).

In the case of glucose oxidase, the “activity of glucose oxidase upon immobilization on the hydrophobin layer” value [1] is reported as “remained active” and the “activity of immobilized enzyme (oxidation of o-dianisidine upon addition of glucose)” value [2] is reported as “absorption at 435 nm was observed”.

For cholesterol oxidase, the “activity of immobilized cholesterol oxidase” value [3] was “remaining active”.

For “firefly luciferase: firefly luciferase (Roche, cat no. 411523)”, the “activity of enzyme attached to bare wells” value was “not active”.

With “peroxidase: horseradish peroxidase (SIGMA)” the “activity of immobilized enzyme (oxidation of o-dianisidine upon addition of glucose)” value [2] was “Coloring of the solution”, the “state of immobilized enzymes (denaturation, desorption)” value [4] was “not denatured and are not desorbed from the surface” and the function after storage ([4]; 4° C. in buffer solution) was “still functional after several weeks”.

Reference: patent publication US20050238685A1, “Method of binding a compound to a surface” (priority 2002, published 2005)
